Experimental data taken from patent US20220280581A1, “BENEFICIAL BACTERIA AND SECRETORY IMMUNOGLOBULIN A” (priority 2019, published 2022).

How the values were obtained:
pooled human milk SIgA [1] = experiment: Binding of SIgA to bacteria by flow cytometry; conditions: for binding of a heterogeneous pool of SIgA: 0-1000 μg SIgA per 1e7 CFU; for association to SIgA when first grown on 2′FL: 1% 2′FL in the final media
Protocol: Binding of sIgA to bacteria. Bacteria from Table 1 were resuspended in 0.8% saline at a concentration of 1×10^7 CFU/mL. SIgA was then added at 0, 10, 100, 500 and 1000 μg per 1×10^7 colony forming units (CFU) of bacteria and incubated at 24° C. for 30 min. Following incubation, bacteria were pelleted at 14000×g for 4 min and washed with saline twice to remove non-adherent SIgA.
(§1) Flow cytometry and immunofluorescence: To measure binding cells were fixed using 4% w/v paraformaldehyde for 30 min, washed with PBS, then incubated with 1% bovine serum albumin (BSA) blocking buffer for 1 h. Cells were stained with 1/100 dilution SYTOT™ 9 (S34854, ThermoFisher) for live cells and goat anti-human IgA conjugated to Alexa 647 fluorophore using 1/50 dilution in 1% BSA (ab96998, Abcam). For flow cytometry, all samples were acquired and analyzed on a FACScan flow cytometer (BD Biosciences, Mountain View, Calif.) using the CellQuest software program. For live/dead analyses following in vitro digestion, cells were stained with SYTOT™ 9 (1/100 dilution) for live cells and propidium iodine (1/1000 dilution) for dead cells or cells with compromised membranes.

[2] = Protection from simulated gastric digestion in vitro (pepsin, pancreatin): viability by CFU plating and live/dead flow cytometry; conditions: for Slope (CFU/% SIgA): regression of viable CFU post-digestion on SIgA association
Protocol: as §1
Protection from digestion using an in vitro model. To determine the extent to which the SIgA-glycan-mediated-bacterial complexes that included the Ig-bound secretory component (SC) where able to protect bacteria and SIgA from proteolytic degradation, an in vitro model was used. Simulated gastric digestion was performed by resuspending bacteria in 200 ul of 0.1% porcine pepsin (Sigma—Aldrich, St. Louis, Mo.) in PBS at pH 4. Samples were placed in an incubating shaker (New Brunswick Scientific, Edison, N.J.) at 140 rpm at 37° C. for 15 min. Cells were then pelleted and resuspended in 200 ul of 0.04% pancreatin (Sigma— Aldrich) in PBS pH 7, and the samples placed in the incubator shaker at 140 rpm at 37° C. for 5 min. Bacteria were pelleted and washed twice with PBS to remove residual enzymes, then evaluated for viability through CFU serial dilution and spot plating, and with live/dead flow cytometry analysis.

[3] = system: colonocytes (Caco-2 / HT29-MTX E12 co-culture); experiment: Colonocyte barrier function and immune gene expression (RT-qPCR); format: cell-based, human; conditions: 1000 μg SIgA per 1e7 CFU vs no SIgA
Protocol: (§2) Mammalian cell culture binding assays: Caco-2 colonic cells were co-cultured with HT29-MTX E12 cells at a ratio of 3:1 and seeded at a density of 5×10^4 cells/well in 24-well plates, maintained as described above. On day 1 post-confluence, medium was removed, the cells washed once with PBS, and DMEM without FBS or antibiotics was added prior to binding assay. Bacteria were prepared as described above, with or without SIgA and resuspended in PBS at 1×10^7 CFU/mL. 4×10^5 CFU were added to the colonocytes and the plate was centrifuged at 600×g for 5 min to ensure bacteria association with the cells. After 2 h of incubation at 37° C. in 5% CO2, medium was removed and saved for cytokine analysis. Cells were washed once with PBS, and to one set of replicates, cells were lysed with 0.5% Triton X-100 and serial dilutions of the cell suspensions were plated on MRS and incubated anaerobically at 37° C. overnight to test viability. To a second set of replicates, TRIzol (15596018; Life Technologies) was added directly to washed cells for RNA extraction.
Mammalian cell culture RT-qPCR for gene expression: Total RNA from mammalian co-culture samples were extracted via the TRIzol method. Total RNA (1 μg) was treated with Turbo DNAse (EN0521; Thermo Fisher) to remove genomic DNA, then used for reverse transcription producing cDNA, performed according to manufacturer protocol (High Capacity Complementary DNA Reverse Transcription Kit; Applied Biosystems). Gene list and primer sequences can be found in Table 2. Real-time PCR was performed with the Quantistudio 3 qPCR thermocycler (Applied Biosystems) using SyberGreen master mix (Life Technologies). Actin and GADPH were used as house-keeping genes. Analysis was performed using Quantistudio Design and Analysis Software v.1.4.3.

[4] = system: Caco-2 colonic cells co-cultured with HT29-MTX E12 cells; experiment: Bacterial adherence to colonocyte co-cultures; format: cell-based, human
Protocol: as §2

SIgA = experiment: Loss of SIgA-bacteria association after deglycosylation; format: binding
pooled human milk SIgA [5] = experiment: Binding of SIgA to bacteria by flow cytometry; conditions: 100 μg SIgA to 1e6 cfu bacteria

Substance | Slope (CFU/% SIgA) ([2]; substrate glucose) | Slope (CFU/% SIgA) ([2]; substrate lactose) | Slope (adherent CFU/% SIgA association) ([4]; substrate 2'FL) | Slope (adherent CFU/% SIgA association) ([4]; substrate glucose) | Slope (adherent CFU/% SIgA association) ([4]; substrate lactose) | Slope (adherent CFU/% SIgA association) ([4]; substrate all) | also measured
Lactobacillus rhamnosus ATCC 7469 | −2121 | −23719 | 333.3 adherent CFU/% SIgA associatio | −138.4 adherent CFU/% SIgA associatio | 456.6 adherent CFU/% SIgA associatio |  | binding of a heterogeneous pool of SIgA (pooled human milk SIgA [1]): concentration dependent; difference post-digestion with or without SIgA ([2]; grown in 1% glucose): no significant difference; Slope (CFU/% SIgA) ([2]; substrate 2′FL): −39446 CFU/% SIgA; decrease of IL-8 gene expression when first complexed with SIgA [3]: 4 fold; decrease of pIgR gene expression when first complexed with SIgA [3]: 4 fold; slope of regression plot of adherent bacteria with SIgA association ([4]; lactose-grown): 37.7 adherent CFU per % population associated with SIgA
Lactobacillus reuteri DSM | −38517 | 47155 |  | −9455.0 adherent CFU/% SIgA associatio | 524.1 adherent CFU/% SIgA associatio | −4652.0 adherent CFU/% SIgA associatio | slope m of association to SIgA post-digestion ([2]; grown on glucose): −3.9e4 CFU/% SIgA association; loss of SIgA-bacteria complexes after deglycosylation (SIgA): over 7%
Bifidobacterium longum ssp. longum SC596 |  |  | 37.7 adherent CFU/% SIgA associatio | 28.5 adherent CFU/% SIgA associatio | −13.3 adherent CFU/% SIgA associatio | 27.1 adherent CFU/% SIgA associatio | binding of a heterogeneous pool of SIgA (pooled human milk SIgA [1]): concentration dependent; association to SIgA when first grown on 2′FL (pooled human milk SIgA [1]): increased association to SIgA; live bacteria post-digestion (live-dead flow cytometry) ([2]; 1000 μg SIgA/1e7 CFU): 50.85%; live bacteria post-digestion (live-dead flow cytometry) ([2]; no SIgA): 29.05%; increased adherence to colonocytes with SIgA association ([4]; first grown on 2′FL): 4e3
Bifidobacterium pseudocatenulatum MP80 | 82548 |  | −50.6 adherent CFU/% SIgA associatio | 14.2 adherent CFU/% SIgA associatio |  | 32.0 adherent CFU/% SIgA associatio | association to SIgA when first grown on 2′FL (pooled human milk SIgA [1]): increased association to SIgA; viable bacteria post-digestion ([2]; grown on glucose, 100 or 1000 μg SIgA/1e7 CFU): 4e6; viable bacteria post-digestion ([2]; grown on glucose, no SIgA): 2e5 CFU; slope of regression plot of viability with SIgA association ([2]; post-digestion, grown on glucose): 8.2e4 CFU per % population SIgA association; Slope (CFU/% SIgA) ([2]; substrate 2′FL): 51114 CFU/% SIgA; ability to bind to pooled human milk SIgA (pooled human milk SIgA [5]): 40.3%; increase in SIgA binding when first grown on an HMO substrate (pooled human milk SIgA [5]): 61.7%
Bifidobacterium bifidum SC555 |  |  | 16.9 adherent CFU/% SIgA associatio | 2288.0 adherent CFU/% SIgA associatio |  | 896.4 adherent CFU/% SIgA associatio | 
Bifidobacterium breve SC95 |  | −106.9 |  | 9083.0 adherent CFU/% SIgA associatio | 4617.0 adherent CFU/% SIgA associatio | 13289.0 adherent CFU/% SIgA associatio | live bacteria post-digestion (live-dead flow cytometry) ([2]; 1000 μg SIgA/1e7 CFU): 57.8%; live bacteria post-digestion (live-dead flow cytometry) ([2]; no SIgA): no viable bacteria; Slope (CFU/% SIgA) ([2]; substrate LNnT): 223.1 CFU/% SIgA; ability to bind to pooled human milk SIgA (pooled human milk SIgA [5]): 16%; increase in SIgA binding when first grown on an HMO substrate (pooled human milk SIgA [5]): 45%; Slope (adherent CFU/% SIgA association) ([4]; substrate LNnT): 19516.0 adherent CFU/% SIgA associatio
Lactobacillus acidophilus NCFM | −8952 | 38918 |  | −3014.0 adherent CFU/% SIgA associatio | −3341.0 adherent CFU/% SIgA associatio | −3134.0 adherent CFU/% SIgA associatio | slope m of association to SIgA post-digestion ([2]; grown on glucose): −8.9e3 CFU/% SIgA association
